Where “and” joins values, the source holds several entries; their conditions need not be identical. Equal values may be shown once. Inconclusive results and toxic doses are left out. Rule for the calls: active = survival T/C of 150% or more; inactive = T/C below 125% in these data.
System: BDF1 mice, P388 leukemia ip, median survival T/C
Assay: NCI In Vivo Anticancer Drug Screen. Data for tumor model P388 Leukemia (intraperitoneal) in B6D2F1 (BDF1) mice
Settings: endpoint: median survival time, higher = longer survival
Summary of the method: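 Steps: implant the tumour, treat one group with compound and another with vehicle, record survival, then divide treated by control.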

[1] = dose: 25.0 mg/kg/injection, schedule: Q04DX003 (ip), vehicle: saline with Tween-80
[2] = dose: 50.0 mg/kg/injection, schedule: Q04DX003 (ip), vehicle: saline with Tween-80
[3] = dose: 100.0 mg/kg/injection, schedule: Q04DX003 (ip), vehicle: saline with Tween-80
[4] = dose: 200.0 mg/kg/injection, schedule: Q04DX003 (ip), vehicle: saline with Tween-80
[5] = dose: 400.0 mg/kg/injection, schedule: Q04DX003 (ip), vehicle: saline with Tween-80
[6] = dose: 100.0 mg/kg/injection, schedule: Q04DX003 (ip), vehicle: Klucel (hydroxypropylcellulose) (HPC)
[7] = dose: 200.0 mg/kg/injection, schedule: Q04DX003 (ip), vehicle: Klucel (hydroxypropylcellulose) (HPC)
[8] = dose: 400.0 mg/kg/injection, schedule: Q04DX003 (ip), vehicle: Klucel (hydroxypropylcellulose) (HPC)
[9] = dose: 100.0 mg/kg/injection, schedule: Q01DX009 (ip), vehicle: Klucel (hydroxypropylcellulose) (HPC)
[10] = dose: 12.5 mg/kg/injection, schedule: Q01DX009 (ip), vehicle: saline
[11] = dose: 25.0 mg/kg/injection, schedule: Q01DX009 (ip), vehicle: saline
[12] = dose: 50.0 mg/kg/injection, schedule: Q01DX009 (ip), vehicle: saline
[13] = dose: 25.0 mg/kg/injection, schedule: Q01DX009 (ip), vehicle: saline with Tween-80
[14] = dose: 50.0 mg/kg/injection, schedule: Q01DX009 (ip), vehicle: saline with Tween-80

Measured: T/C

COC(=O)C(CSCc1ccccc1)NC(=O)CCNC(=O)OCc1ccccc1 (centres undefined)
inactive: dose: 1.56 mg/kg/injection, schedule: Q04DX003 (ip), vehicle: Klucel (hydroxypropylcellulose) (HPC) 100 % of control | dose: 3.13 mg/kg/injection, schedule: Q04DX003 (ip), vehicle: Klucel (hydroxypropylcellulose) (HPC) 104 % of control | dose: 6.25 mg/kg/injection, schedule: Q04DX003 (ip), vehicle: Klucel (hydroxypropylcellulose) (HPC) 113 % of control | dose: 12.5 mg/kg/injection, schedule: Q04DX003 (ip), vehicle: Klucel (hydroxypropylcellulose) (HPC) 104 % of control | dose: 12.5 mg/kg/injection, schedule: Q04DX003 (ip), vehicle: saline with Tween-80 93 % of control | [1] 102 % of control | [2] 100 % of control | [3] 107 % of control | [4] 94 % of control | [5] 94 % of control

[Cl][Rh][Cl].[NH-]c1ccc(S(=O)(=O)Nc2ccccn2)cc1.[NH-]c1ccc(S(=O)(=O)Nc2ccccn2)cc1.[NH-]c1ccc(S(=O)(=O)Nc2ccccn2)cc1.[NH-]c1ccc(S(=O)(=O)Nc2ccccn2)cc1
inactive: [3] 108 % of control | [4] 94 % of control | [5] 91 % of control

CC1(C)C2CC3C(=CCCC3(Cl)C#N)C1C2 (centres undefined)
inactive: [6] 100 % of control | [7] 95 % of control | [8] 95 % of control

O=C(N/N=C/c1ccccc1Cl)c1ccccc1
inactive: [9] 109 % of control | dose: 200.0 mg/kg/injection, schedule: Q01DX009 (ip), vehicle: Klucel (hydroxypropylcellulose) (HPC) 118 % of control | dose: 400.0 mg/kg/injection, schedule: Q01DX009 (ip), vehicle: Klucel (hydroxypropylcellulose) (HPC) 90 % of control

Cc1ccc(S(=O)(=O)N2CCC(C(=O)O)(c3ccccc3)CC2)cc1
inactive: [3] 100 % of control | [4] 95 % of control | [5] 95 % of control

COc1cc(NS(=O)(=O)c2ccccc2)ccc1C
inactive: dose: 25.0 mg/kg/injection, schedule: Q01DX009 (ip), vehicle: Klucel (hydroxypropylcellulose) (HPC) 100 % of control | dose: 50.0 mg/kg/injection, schedule: Q01DX009 (ip), vehicle: Klucel (hydroxypropylcellulose) (HPC) 100 % of control | [9] 89 % of control and 110 % of control | [6] 104 % of control | [7] 95 % of control | [8] 95 % of control

O=Cc1cc([N+](=O)[O-])ccc1Cl
inactive: [2] 100 % of control | [3] 96 % of control | [4] 100 % of control

O=C1NC(c2ccccc2)(c2ccccc2)C(=O)N1CCBr
inactive: [10] 105 % of control and 121 % of control | [11] 105 % of control and 113 % of control | [12] 107 % of control and 113 % of control | dose: 50.0 mg/kg/injection, schedule: Q04DX003 (ip), vehicle: saline 107 % of control

CC1=Nc2ccccc2NC(C)(C)C1
inactive: dose: 100.0 mg/kg/injection, schedule: Q04DX003 (ip), vehicle: saline 101 % of control | dose: 200.0 mg/kg/injection, schedule: Q04DX003 (ip), vehicle: saline 99 % of control | dose: 400.0 mg/kg/injection, schedule: Q04DX003 (ip), vehicle: saline 90 % of control

O=[N+]([O-])c1ccccn1
inactive: dose: 6.25 mg/kg/injection, schedule: Q04DX003 (ip), vehicle: saline 100 % of control | dose: 12.5 mg/kg/injection, schedule: Q04DX003 (ip), vehicle: saline 100 % of control | dose: 25.0 mg/kg/injection, schedule: Q04DX003 (ip), vehicle: saline 104 % of control

Cc1cc2c(c3ncccc13)OCN(Cc1ccc(Cl)c(Cl)c1)C2
inactive: dose: 12.5 mg/kg/injection, schedule: Q01DX009 (ip), vehicle: saline with Tween-80 113 % of control | [13] 108 % of control | [14] 104 % of control

CN(C)c1ccc(/C=C/c2ccc3ccccc3[n+]2C)cc1
inactive: [10] 88 % of control

Cc1ccc2nc3c(nc2c1)-c1cccc2cccc-3c12
inactive: [3] 87 % of control | [4] 91 % of control | [5] 91 % of control

CC(=O)c1ccc[n+](Cc2c(Cl)cccc2Cl)c1
inactive: dose: 3.13 mg/kg/injection, schedule: Q01DX009 (ip), vehicle: saline 93 % of control | dose: 6.25 mg/kg/injection, schedule: Q01DX009 (ip), vehicle: saline 92 % of control | [10] 92 % of control

O=C(COc1ccccc1[N+](=O)[O-])Nc1cccnc1
inactive: [3] 100 % of control | [4] 95 % of control | [5] 100 % of control

COc1ccc(OC)c2c1C(=O)CC2C (centres undefined)
inactive: [11] 105 % of control | [12] 91 % of control | dose: 100.0 mg/kg/injection, schedule: Q01DX009 (ip), vehicle: saline 98 % of control

O=C(/C=C/c1cccc(Br)c1)c1ccc(Cl)cc1
inactive: dose: 50.0 mg/kg/injection, schedule: Q01DX009 (ip), vehicle: other 120 % of control | dose: 50.0 mg/kg/injection, schedule: Q04DX003 (ip), vehicle: other 100 % of control | dose: 100.0 mg/kg/injection, schedule: Q01DX009 (ip), vehicle: other 120 % of control | dose: 100.0 mg/kg/injection, schedule: Q04DX003 (ip), vehicle: other 100 % of control | dose: 132.0 mg/kg/injection, schedule: Q01DX009 (ip), vehicle: other 100 % of control | dose: 200.0 mg/kg/injection, schedule: Q01DX009 (ip), vehicle: other 104 % of control | dose: 200.0 mg/kg/injection, schedule: Q04DX003 (ip), vehicle: other 90 % of control | dose: 300.0 mg/kg/injection, schedule: Q01DX009 (ip), vehicle: other 104 % of control

C=C(C)C(=O)NCC(=O)NC(CC(C)C)C(=O)Oc1ccc([N+](=O)[O-])cc1 (centres undefined)
inactive: [13] 97 % of control | [14] 97 % of control | dose: 100.0 mg/kg/injection, schedule: Q01DX009 (ip), vehicle: saline with Tween-80 90 % of control

Cc1cc(-c2ccc(NC(=O)c3cccc([N+](=O)[O-])c3)c(C)c2)ccc1NC(=O)c1cccc([N+](=O)[O-])c1
inactive: dose: 50.0 mg/kg/injection, schedule: Q01DX005 (ip), vehicle: saline with Tween-80 96 % of control | dose: 100.0 mg/kg/injection, schedule: Q01DX005 (ip), vehicle: saline with Tween-80 94 % of control | dose: 200.0 mg/kg/injection, schedule: Q01DX005 (ip), vehicle: saline with Tween-80 105 % of control

CCOC(=O)c1cc2ccccc2oc1=O
inactive: [13] 95 % of control | [1] 115 % of control | [14] 100 % of control | [2] 105 % of control | [3] 105 % of control

CCc1ccc(OS(=O)(=O)c2ccccc2[N+](=O)[O-])cc1
inactive: dose: 100.0 mg/kg/injection, schedule: Q04DX003 (ip), vehicle: saline sonified 100 % of control | dose: 200.0 mg/kg/injection, schedule: Q04DX003 (ip), vehicle: saline sonified 100 % of control | dose: 400.0 mg/kg/injection, schedule: Q04DX003 (ip), vehicle: saline sonified 100 % of control

CCOC(CN(Cc1ccc(OC)c(OCc2ccccc2)c1)S(=O)(=O)c1ccc(C)cc1)OCC
inactive: dose: 25.0 mg/kg/injection, schedule: Q01DX009 (ip), vehicle: water 89 % of control | dose: 50.0 mg/kg/injection, schedule: Q01DX009 (ip), vehicle: water 99 % of control | dose: 100.0 mg/kg/injection, schedule: Q01DX009 (ip), vehicle: water 92 % of control | dose: 200.0 mg/kg/injection, schedule: Q01DX009 (ip), vehicle: water 112 % of control | dose: 400.0 mg/kg/injection, schedule: Q01DX009 (ip), vehicle: water 99 % of control
